In patent US7638535B2, “4-(aminomethyl)-piperidine benzamides as 5HT4-antagonists” (Janssen Pharmaceutica N.V., priority 2003, dated 2009):

target: T1, h5-HT4b (Homo sapiens, UniProt Q13639); assay: 5HT4 antagonism: [3H]GR113808 binding to membranes of h5-HT4b-HEK 293 clone 9 cells; conditions: displacement of [3H]GR113808 0.1 nM, h5-HT4b-HEK 293 membranes, 30 min at 25° C.; read-out: pIC50 (5HT4 antagonistic data) (converted)
T1 construct: expressed in transfected cells; host or cells: HEK 293 (clone 9), membrane preparation
Procedure: h5-HT4b-HEK 293 clone 9 cells were cultured in 150 mm Petri dishes and washed twice with cold PBS. The cells were then scraped from the plates and suspended in 50 mM Tris-HCl buffer, pH 7.4 and harvested by centrifugation at 23,500 rpm for 10 minutes. The pellet was resuspended in 5 mM Tris-HCl, pH 7.4 and homogenized with an Ultra Turrax homogenizer. The membranes were collected by centrifugation at 30,000 rpm for 20 min, resuspended in 50 mM Tris-HCl pH 7.4 and stored at −80° C. For the experiment, assay mixtures (0.5 ml) contained 50 μl of the tritiated ligand (5-HT4 antagonist [^3H]GR113808 0.1 nM) and 0.4 ml membrane preparation (15 μg protein/ml). 50 μl of 10% DMSO was added for total binding. 50 μl of 1 μM of (+)-trans-(1-butyl-3-hydroxy-4-piperidinyl)methyl 8-amino-7-chloro-2,3-dihydro-1,4-benzodioxin-5-carboxylate (a proprietary 5HT4 agonist of Janssen Pharmaceutica) was added for determination of non-specific binding.
The [^3H]GR113808 assay buffer was 50 mM HEPES-NaOH, pH 7.4. The mixtures were incubated for 30 min at 25° C. The incubation was terminated by filtration over a Unifilter 96 GF/B presoaked in 0.1% polyethylenimine, followed by six washing steps with 50 mM HEPES-NaOH, pH 7.4.

T1 sequence (Q13639 whole entry): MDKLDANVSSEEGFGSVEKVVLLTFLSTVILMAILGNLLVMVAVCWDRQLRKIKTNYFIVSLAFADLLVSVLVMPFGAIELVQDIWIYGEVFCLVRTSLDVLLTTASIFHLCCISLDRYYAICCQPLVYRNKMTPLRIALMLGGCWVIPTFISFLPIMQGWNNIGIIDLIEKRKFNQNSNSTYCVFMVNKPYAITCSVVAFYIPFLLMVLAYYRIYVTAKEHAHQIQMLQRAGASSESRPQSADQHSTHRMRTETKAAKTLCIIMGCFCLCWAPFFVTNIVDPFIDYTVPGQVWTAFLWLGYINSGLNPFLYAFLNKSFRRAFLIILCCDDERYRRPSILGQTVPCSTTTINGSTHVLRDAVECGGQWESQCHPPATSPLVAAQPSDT

Compound	IC50 [nM]
Cc1cc2c(c(C(=O)NC[C@@H]3CCNC[C@H]3O)c1)OCCCO2 [compound 5]	64.6
Nc1cc(C(=O)NC[C@@H]2CCN(CCCO)C[C@H]2O)c2c(c1Cl)OCCO2 [compound 7]	17.8
Nc1cc(C(=O)NC[C@@H]2CCNC[C@H]2O)c2c(c1Cl)OCCO2 [compound 8]	372
COCCCN1CC[C@@H](CNC(=O)c2cc(N)c(Cl)c3c2OCCO3)[C@H](O)C1 [compound 9]	16.2
Nc1cc(C(=O)NC[C@@H]2CCN(CC3CCCO3)C[C@H]2O)c2c(c1Cl)OCCO2 (some centres unmarked) [compound 10]	6.03
CNc1cc2c(c(C(=O)NC[C@@H]3CCN(CCC4OCCO4)C[C@H]3O)c1)OCCCO2 [compound 13]	708
Nc1cc(C(=O)NC[C@@H]2CCN(CCC3OCCO3)C[C@H]2O)c2c(c1Cl)OCCO2 [compound 14]	16.6
N#CCCCN1CC[C@@H](CNC(=O)c2cc(N)c(Cl)c3c2OCCO3)[C@H](O)C1 [compound 15]	30.2
CNc1cc2c(c(C(=O)NC[C@@H]3CCN(CCC4OCCO4)C[C@H]3O)c1)OCCO2 [compound 17]	25.7
CNc1cc2c(c(C(=O)NC[C@@H]3CCN(CC4CCCO4)C[C@H]3O)c1)OCCO2 (some centres unmarked) [compound 19]	17.4
CNc1cc2c(c(C(=O)NC[C@@H]3CCN(CCCC#N)C[C@H]3O)c1)OCCO2 [compound 20]	52.5
CNc1cc2c(c(C(=O)NC[C@@H]3CCN(CC4CCCO4)C[C@H]3O)c1)OCCCO2 (some centres unmarked) [compound 21]	63.1
CCCCN1CC[C@@H](CNC(=O)c2cc(NC)c(Cl)c3c2OCCO3)[C@H](O)C1 [compound 28]	15.5
COCCCCN1CC[C@@H](CNC(=O)c2cc(N)c(Cl)c3c2OCCO3)[C@H](O)C1 [compound 29]	11
CNc1cc(C(=O)NC[C@@H]2CCN(CCC3OCCO3)C[C@H]2O)c2c(c1Cl)OCCO2 [compound 30]	31.6
Nc1cc(C(=O)NC[C@@H]2CCN(CCCOC3CCCCC3)C[C@H]2O)c2c(c1Cl)OCCO2 [compound 31]	3.31
CNc1cc2c(c(C(=O)NC[C@@H]3CCN(CCCOC4CCCCC4)C[C@H]3O)c1)OCCCO2 [compound 34]	31.6
CNc1cc2c(c(C(=O)NC[C@@H]3CCN(CCOC)C[C@H]3O)c1)OCCO2 [compound 35]	44.7
CNc1cc2c(c(C(=O)NC[C@@H]3CCN(CCCOC(C)C)C[C@H]3O)c1)OCCO2 [compound 36]	21.4
CNc1cc2c(c(C(=O)NC[C@@H]3CCN(CCCOC4CCCCC4)C[C@H]3O)c1)OCCO2 [compound 40]	6.92
COCCN1CC[C@@H](CNC(=O)c2cc(N)c(Cl)c3c2OCCO3)[C@H](O)C1 [compound 42]	18.6

Compound	IC50 [nM]
CC1(CCCN2CC[C@@H](CNC(=O)c3cc(N)c(Cl)c4c3OCCO4)[C@H](O)C2)OCCO1 [compound 43]	13.2
COCCCN1CC[C@@H](CNC(=O)c2cc(N)c(Cl)c3c2OCCCO3)[C@H](O)C1 [compound 47]	31.6
N#CCCCN1CC[C@@H](CNC(=O)c2cc(N)c(Cl)c3c2OCCCO3)[C@H](O)C1 [compound 48]	33.1
Nc1cc(C(=O)NCC2CCN(CC3CCCO3)C[C@H]2O)c2c(c1Cl)OCCCO2 (some centres unmarked) [compound 51]	14.5
Nc1cc(C(=O)NC[C@@H]2CCN(CCC3OCCO3)C[C@H]2O)c2c(c1Cl)OCCCO2 [compound 52]	14.8
Nc1cc(C(=O)NC[C@@H]2CCN(CCCCO)C[C@H]2O)c2c(c1Cl)OCCO2 [compound 53]	20
CNc1cc2c(c(C(=O)NC[C@@H]3CCN(CCCCOC)C[C@H]3O)c1)OCCO2 [compound 54]	14.8
CNc1cc2c(c(C(=O)NC[C@@H]3CCN(Cc4ccc(F)cc4)C[C@H]3O)c1)OCCO2 [compound 56]	17.8
COCCCCN1CC[C@@H](CNC(=O)c2cc(N)c(Cl)c3c2OCCCO3)[C@H](O)C1 [compound 58]	14.1
Nc1cc(C(=O)NC[C@@H]2CCN(Cc3ccc(F)cc3)C[C@H]2O)c2c(c1Cl)OCCO2 [compound 64]	15.5
Nc1cc(C(=O)NC[C@@H]2CCN(CCCOC3CCCCC3)C[C@H]2O)c2c(c1Cl)OCCCO2 [compound 65]	3.55
Nc1cc(C(=O)NC[C@@H]2CCN(CCOCCO)C[C@H]2O)c2c(c1Cl)OCCO2 [compound 70]	89.1
Nc1cc(C(=O)NC[C@@H]2CCN(CCOCCO)C[C@H]2O)c2c(c1Cl)OCCCO2 [compound 72]	83.2
CNc1cc2c(c(C(=O)NC[C@@H]3CCN(Cc4ccc(F)cc4)C[C@H]3O)c1)OCCCO2 [compound 74]	214
CS(=O)(=O)NCCN1CC[C@@H](CNC(=O)c2cc(N)c(Cl)c3c2OCCCO3)[C@H](O)C1 [compound 75]	30.9
CC1(CCCN2CC[C@@H](CNC(=O)c3cc(N)c(Cl)c4c3OCCCO4)[C@H](O)C2)OCCO1 [compound 76]	22.9
Nc1cc(C(=O)NC[C@@H]2CCN(Cc3ccc(F)cc3)C[C@H]2O)c2c(c1Cl)OCCCO2 [compound 78]	9.33
COCCN1CC[C@@H](CNC(=O)c2cc(N)c(Cl)c3c2OCCCO3)[C@H](O)C1 [compound 79]	39.8
N#CCN1CC[C@@H](CNC(=O)c2cc(N)c(Cl)c3c2OCCCO3)[C@H](O)C1 [compound 82]	6170
CNc1cc2c(c(C(=O)NC[C@@H]3CCN(CCOCCO)C[C@H]3O)c1)OCCO2 [compound 84]	93.3

More lines, now with the values ahead:

IC50 [nM]	Compound
38	N#CCCCN1CC[C@@H](CNC(=O)c2cc(N)cc3c2OCCCO3)[C@H](O)C1 [compound 3]
69.2	Nc1cc2c(c(C(=O)NC[C@@H]3CCN(CC4CCCO4)C[C@H]3O)c1)OCCCO2 (some centres unmarked) [compound 4]
57.5	N#CCCCN1CC[C@@H](CNC(=O)c2cc(N)cc3c2OCCO3)[C@H](O)C1 [compound 6]
41.7	CNc1cc2c(c(C(=O)NC[C@@H]3CCN(CCCO)C[C@H]3O)c1)OCCO2 [compound 12]
195	Nc1cc2c(c(C(=O)NC[C@@H]3CCN(CCCC(=O)O)C[C@H]3O)c1)OCCO2 [compound 18]
17.8	Nc1cc2c(c(C(=O)NC[C@@H]3CCN(CC4CCCO4)C[C@H]3O)c1)OCCO2 (some centres unmarked) [compound 22]
19.1	CC(C)OCCCN1CC[C@@H](CNC(=O)c2cc(N)cc3c2OCCO3)[C@H](O)C1 [compound 23]
138	Nc1cc(C(=O)NC[C@@H]2CCN(CCCC(=O)O)C[C@H]2O)c2c(c1Cl)OCCO2 [compound 25]
2630	CNc1cc2c(c(C(=O)NC[C@@H]3CCN(CCCC(=O)O)C[C@H]3O)c1)OCCCO2 [compound 27]
63.1	COCCN1CC[C@@H](CNC(=O)c2cc(N)cc3c2OCCO3)[C@H](O)C1 [compound 32]
36.3	CC(C)OCCCN1CC[C@@H](CNC(=O)c2cc(N)cc3c2OCCCO3)[C@H](O)C1 [compound 37]
288	CNc1cc2c(c(C(=O)NC[C@@H]3CCN(CCCC#N)C[C@H]3O)c1)OCCCO2 [compound 38]
1230	Nc1cc2c(c(C(=O)NC[C@@H]3CCN(CCCC(=O)O)C[C@H]3O)c1)OCCCO2 [compound 39]
15.5	COCCCCN1CC[C@@H](CNC(=O)c2cc(N)cc3c2OCCO3)[C@H](O)C1 [compound 41]
135	COCCN1CC[C@@H](CNC(=O)c2cc(N)cc3c2OCCCO3)[C@H](O)C1 [compound 45]
8.32	CCCCN1CC[C@@H](CNC(=O)c2cc(N)c(Cl)c3c2OCCCO3)[C@H](O)C1 [compound 46]
25.7	Nc1cc2c(c(C(=O)NC[C@@H]3CCN(CCCOC4CCCCC4)C[C@H]3O)c1)OCCCO2 [compound 49]
64.6	Nc1cc2c(c(C(=O)NC[C@@H]3CCN(Cc4ccc(F)cc4)C[C@H]3O)c1)OCCCO2 [compound 55]
51.3	CC1(CCCN2CC[C@@H](CNC(=O)c3cc(N)cc4c3OCCCO4)[C@H](O)C2)OCCO1 [compound 59]
81.3	CC(=O)CCCN1CC[C@@H](CNC(=O)c2cc(N)cc3c2OCCCO3)[C@H](O)C1 [compound 60]
14.5	CNc1cc2c(c(C(=O)NC[C@@H]3CCN(CCCC(C)=O)C[C@H]3O)c1)OCCO2 [compound 61]
81.3	CNc1cc2c(c(C(=O)NC[C@@H]3CCN(CCCCOC)C[C@H]3O)c1)OCCCO2 [compound 62]
282	Nc1cc(C(=O)NC[C@@H]2CCN(CCCC(=O)O)C[C@H]2O)c2c(c1Cl)OCCCO2 [compound 66]
479	CNc1cc2c(c(C(=O)NC[C@@H]3CCN(CCOCCO)C[C@H]3O)c1)OCCCO2 [compound 67]
490	Nc1cc2c(c(C(=O)NC[C@@H]3CCN(CCOCCO)C[C@H]3O)c1)OCCCO2 [compound 69]
55	Nc1cc2c(c(C(=O)NC[C@@H]3CCN(CCCCO)C[C@H]3O)c1)OCCCO2 [compound 73]
69.2	CNc1cc2c(c(C(=O)NC[C@@H]3CCN(CCCC(C)=O)C[C@H]3O)c1)OCCCO2 [compound 77]
7.59	CC(=O)CCCN1CC[C@@H](CNC(=O)c2cc(N)c(Cl)c3c2OCCCO3)[C@H](O)C1 [compound 80]
1150	CNCCCN1CC[C@@H](CNC(=O)c2cc(NC)cc3c2OCCCO3)[C@H](O)C1 [compound 81]
14.8	CC(=O)CCCN1CC[C@@H](CNC(=O)c2cc(N)cc3c2OCCO3)[C@H](O)C1 [compound 83]
